Data set [1] in a line: Octanol-water partition coefficient, log P of the compound.
Data set [2] concerns Rattus norvegicus. The experiment in a line: Antihypertensive activity in Wistar rat invasive arterial pressure model assessed as reduction of diastolic pressure at 1 mg/kg, iv. It counts as functional, organism-based. Set-up: dose 1 mg/kg. The following applies: Artery.
The subject of data set [3] is Rattus norvegicus. The experiment in a line: Antihypertensive activity in Wistar rat invasive arterial pressure model assessed as reduction of systolic pressure at 1 mg/kg, iv. It is filed as functional, organism-based. Also on record: dose 1 mg/kg. Particulars: Artery.
Data set [4] concerns Rattus norvegicus. The experiment in a line: Antiarrhythmic activity in Wistar rat invasive arterial pressure model assessed as reduction of heart rate at 0.1 mg/kg, iv. It is filed as functional, organism-based. Also on record: dose 0.1 mg/kg.
The test system of data set [5] is Rattus norvegicus. The experiment in a line: Antihypertensive activity in spontaneous hypertensive rat model assessed as reduction of diastolic pressure at 0.1 mg/kg, po after 120 mins. It is filed as functional, organism-based. Also on record: dose 0.1 mg/kg.
For data set [6], the system named is Rattus norvegicus. The experiment in a line: Antihypertensive activity in Wistar rat invasive arterial pressure model assessed as reduction of systolic pressure at 0.1 mg/kg, iv. Also on record: dose 0.1 mg/kg. It is filed as functional, organism-based. Particulars: Artery.
For data set [7], the system named is Rattus norvegicus. The experiment in a line: Antihypertensive activity in spontaneous hypertensive rat model assessed as reduction of diastolic pressure at 0.1 mg/kg, po after 50 mins. It is filed as functional, organism-based. Set-up: dose 0.1 mg/kg.
Data set [8] has as its system Rattus norvegicus. The experiment in a line: Antihypertensive activity in Wistar rat invasive arterial pressure model assessed as reduction of diastolic pressure at 0.1 mg/kg, iv. It counts as functional, organism-based. Set-up: dose 0.1 mg/kg. The following applies: Artery.
Data set [9] relates to Rattus norvegicus. The experiment in a line: Antihypertensive activity in spontaneous hypertensive rat model assessed as reduction of systolic pressure at 0.1 mg/kg, po after 50 mins. It is filed as functional, organism-based. Also on record: dose 0.1 mg/kg.
The test system of data set [10] is Rattus norvegicus. The experiment in a line: Antihypertensive activity in spontaneous hypertensive rat model assessed as reduction of systolic pressure at 0.1 mg/kg, po after 120 mins. It counts as functional, organism-based. Also on record: dose 0.1 mg/kg.
Data set [11] concerns Rattus norvegicus. The experiment in a line: Antiarrhythmic activity in spontaneous hypertensive rat model assessed as reduction of heart rate at 0.1 mg/kg, po after 120 mins. It is filed as functional, organism-based. Set-up: dose 0.1 mg/kg.
Data set [12] deals with Rattus norvegicus. The experiment in a line: Antiarrhythmic activity in spontaneous hypertensive rat model assessed as reduction of heart rate at 0.1 mg/kg, po after 40 mins. It is filed as functional, organism-based. Set-up: dose 0.1 mg/kg.

The logP is the decadic logarithm of the partition coefficient of the neutral form, usually between octanol and water.

Structures are written as SMILES. Active and inactive are the calls of the source. No cut-off for these calls is given here.

Turning to `CC(C)(C)c1cc(CN2CCSCC2)c(O)c(CN2CCSCC2)c1`, the logP in data set [1] is 2.03. Besides, the result in data set [2], in data set [3] and in [4] was Active.

Take `CCOC(=O)C1=C(C)NC(C)=C(C(=O)OCC)C1c1cc(CN2CCOCC2)c(O)c(CN2CCOCC2)c1`: the log partition coefficient (logP) in [1] was determined as 2.7. The result in [5], in data set [6], in [7], in data set [8], in [9] and in data set [10] was Active. Besides, the result in [4], in data set [11] and in data set [12] was Active.

In turn, `C[C@H](CS)C(=O)N1CCC[C@H]1C(=O)O` [CAPTOPRIL] registered a logP in data set [1] of 1.02.

`CCCCc1nc(Cl)c(CO)n1Cc1ccc(-c2ccccc2-c2nn[nH]n2)cc1` [LOSARTAN] gave a logP in data set [1] of 4.01.

On to `CC(C)(C)c1ccc(O)c(CN2CCSCC2)c1`, for which the logP in data set [1] is 1.96. Besides, the result in data set [2], in data set [3] and in data set [4] was Active.

As to `Oc1ccc(Cl)cc1CN1CCSCC1`, the logP in data set [1] was more than 3.05. In addition, the result in data set [2], in data set [3] and in data set [4] was Active.

The values are drawn from ChEMBL document CHEMBL1250504, “Antihypertensive and antiarrhythmic properties of a para-hydroxy[bis(ortho-morpholinylmethyl)]phenyl-1,4-DHP compound: comparison with other compounds of the same kind and relationship with logP values” (Eur J Med Chem, 2010).
